Consider 25 molecules from patent US11173145B2, “Compounds useful as inhibitors of indoleamine 2,3-dioxygenase and/or tryptophan dioxygenase” (Board of Regents, The University of Texas System, priority 2017, dated 2021).

By IC50 is commonly meant the point on the concentration scale where inhibition reaches its midpoint. A higher IC50 goes with lower potency.

In one assay the target is T1, IDO1 (Homo sapiens, UniProt P14902).
T1 construct: endogenous in cells; host or cells: HeLa cells (ATCC), IFNgamma-induced
T1 sequence (P14902 whole entry): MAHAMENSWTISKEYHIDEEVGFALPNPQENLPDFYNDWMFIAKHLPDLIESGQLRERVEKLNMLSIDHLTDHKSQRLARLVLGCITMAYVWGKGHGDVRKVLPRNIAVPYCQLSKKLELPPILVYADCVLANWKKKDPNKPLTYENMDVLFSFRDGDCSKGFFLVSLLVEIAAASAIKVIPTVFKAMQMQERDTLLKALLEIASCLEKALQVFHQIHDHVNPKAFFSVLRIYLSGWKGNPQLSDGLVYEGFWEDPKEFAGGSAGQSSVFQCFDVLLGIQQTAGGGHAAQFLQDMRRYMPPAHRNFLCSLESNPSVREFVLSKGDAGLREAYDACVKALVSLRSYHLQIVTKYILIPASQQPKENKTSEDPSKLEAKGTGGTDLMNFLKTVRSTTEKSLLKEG
The assay can be described thus: IDO1 cell-based assay (HeLa cells, IFNgamma-induced, N-formylkynurenine/L-tryptophan by RFMS). The settings on record: 10 ng/mL IFNgamma, 24 hours. The method, boiled down: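 N-formylkynurenine and tryptophan peak areas in media measured by RFMS (C18, isocratic, d-Trp standard), giving IC50 values by regression. Source: HeLa cells incubated 24 h with IFNgamma (10 ng/mL) plus test compound at 0.5% DMSO; parallel CellTiter-Glo viability read.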

The next assay has as its target T2, mouse IDO1 (Mus musculus, UniProt P28776).
T2 construct: The murine PANC02 pancreatic ductal adenocarcinoma cell line was routinely maintained in DMEM media; endogenous in cells; host or cells: PANC02 murine pancreatic ductal adenocarcinoma cells, induced with mouse IFNgamma
The assay can be described thus: Mouse IDO1 cell-based assay (PANC02 cells, mouse IFNgamma-induced, N-formylkynurenine/L-tryptophan by RFMS). The settings on record: 30 ng/mL mouse IFNgamma, 48 hours.

T2 sequence (P28776 whole entry): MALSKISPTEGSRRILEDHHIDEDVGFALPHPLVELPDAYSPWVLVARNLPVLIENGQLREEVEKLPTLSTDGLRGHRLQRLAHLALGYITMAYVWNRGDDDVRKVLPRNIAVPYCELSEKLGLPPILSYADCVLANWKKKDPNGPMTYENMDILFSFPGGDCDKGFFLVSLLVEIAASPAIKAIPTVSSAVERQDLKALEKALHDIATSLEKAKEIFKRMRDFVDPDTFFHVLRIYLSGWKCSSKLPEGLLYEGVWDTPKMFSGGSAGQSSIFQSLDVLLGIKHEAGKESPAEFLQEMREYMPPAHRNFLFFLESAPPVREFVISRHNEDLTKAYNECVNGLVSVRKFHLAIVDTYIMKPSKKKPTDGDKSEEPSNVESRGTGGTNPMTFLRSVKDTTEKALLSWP

In the case of `CCC(NC(=O)c1ccc(Cl)cc1)[C@H]1[C@@H]2C[C@@H](NC(=O)c3ncc(F)cc3F)C[C@@H]21` (stereo partly drawn) [Compound 171, N-((1R,3s,5S,6r)-6-(1-(4-chlorobenzamido)propyl)bicyclo[3.1.0]hexan-3-yl)-3,5-difluoropicolinamide], the IC50 against IDO1 is less than 200 nM; at mouse IDO1, 500 to 2000 nM.
As for `CCC(NC(=O)c1ccc(Cl)cc1)[C@H]1[C@@H]2C[C@H](NC(=O)c3ncccc3F)C[C@@H]21` (stereo partly drawn) [Compound 220, N-((1R,3r,5S,6r)-6-(1-(4-chlorobenzamido)propyl)bicyclo[3.1.0]hexan-3-yl)-3-fluoropicolinamide], the results for the IC50 at IDO1 and at mouse IDO1 were less than 200 nM and less than 500 nM, respectively.
As to `CCC(NC(=O)c1ccc(Cl)cc1)[C@H]1[C@@H]2C[C@@H](Nc3ccccn3)C[C@@H]21` (stereo partly drawn) [Compound 226, 4-chloro-N-(1-((1R,3s,5S,6r)-3-(pyridin-2-ylamino)bicyclo[3.1.0]hexan-6-yl)propyl)benzamide], the IC50 at IDO1 is less than 200 nM; against mouse IDO1, less than 500 nM.
Taken in the same sequence, the figures for `CCC(NC(=O)c1ccc(Cl)cc1)[C@H]1[C@@H]2C[C@@H](Oc3ncnc4cc(Cl)ccc34)C[C@@H]21` (stereo partly drawn) [Compound 253, 4-chloro-N-(1-((1R,3s,5S,6r)-3-((7-chloroquinazolin-4-yl)oxy)bicyclo[3.1.0]hexan-6-yl)propyl)benzamide] were less than 200 nM and 2000 to 5000 nM.
Taken in the same sequence, the figures for `CCC(NC(=O)c1ccc(Cl)cc1)[C@@H]1[C@H]2C=C(c3cncc(C(F)(F)F)c3)C[C@H]21` (stereo partly drawn) [Compound 254, 4-chloro-N-(1-((1R,5R,6S)-3-(5-(trifluoromethyl)pyridin-3-yl)bicyclo[3.1.0]hex-2-en-6-yl)propyl)benzamide] were less than 200 nM and less than 500 nM.
On the same counts, the results for `CCC(NC(=O)c1ccc(Cl)cc1)[C@H]1[C@@H]2C[C@@H](NC(C(=O)NC)c3ccccc3)C[C@@H]21` (stereo partly drawn) [Compound 224, 4-chloro-N-(1-((1R,3s,5S,6r)-3-((2-(methylamino)-2-oxo-1-phenylethyl)amino)bicyclo[3.1.0]hexan-6-yl)propyl)benzamide] are 2000 to 5000 nM and more than 5000 nM.
With `CCC(NC(=O)c1ccc(Cl)cc1)[C@H]1[C@@H]2C[C@@H](NC(=O)c3cccnc3)C[C@@H]21` (stereo partly drawn) [Compound 145, N-((1R,3s,5S,6r)-6-(1-(4-chlorobenzamido)propyl)bicyclo[3.1.0]hexan-3-yl)nicotinamide], the IC50 is less than 200 nM against IDO1 and more than 5000 nM on mouse IDO1.
Turning to `CCC(NC(=O)c1ccc(Cl)cc1)[C@H]1[C@@H]2C[C@@H](Nc3cc(F)cc(F)c3[N+](=O)[O-])C[C@@H]21` (stereo partly drawn) [Compound 243, 4-chloro-N-(1-((1R,3s,5S,6r)-3-((3,5-difluoro-2-nitrophenyl)amino)bicyclo[3.1.0]hexan-6-yl)propyl)benzamide], the IC50 against IDO1 was 200 to 2000 nM; against mouse IDO1, 500 to 2000 nM.
On the same counts, the results for `CCC(NC(=O)c1ccc(Cl)cc1)[C@H]1[C@@H]2C[C@@H](n3nnc4ccc(Br)cc43)C[C@@H]21` (stereo partly drawn) [Compound 178, N-(1-((1R,3s,5S,6r)-3-(6-bromo-1H-benzo[d][1,2,3]triazol-1-yl)bicyclo[3.1.0]hexan-6-yl)propyl)-4-chlorobenzamide] are less than 200 nM and less than 500 nM.
On the same counts, the results for `CCC(NC(=O)c1ccc(Cl)cc1)[C@H]1[C@@H]2C[C@@H](n3cc(C4CN(C(=O)OC(C)(C)C)C4)nn3)C[C@@H]21` (stereo partly drawn) [Compound 233, tert-butyl 3-(1-((1R,3s,5S,6r)-6-(1-(4-chlorobenzamido)propyl)bicyclo[3.1.0]hexan-3-yl)-1H-1,2,3-triazol-4-yl)azetidine-1-carboxylate] are 2000 to 5000 nM and more than 5000 nM.
`CCC(NC(=O)c1ccc(Cl)cc1)[C@H]1[C@@H]2C[C@@H](n3ncnc3C3CC3)C[C@@H]21` (stereo partly drawn) [Compound 258, 4-chloro-N-(1-((1R,3s,5S,6r)-3-(5-cyclopropyl-1H-1,2,4-triazol-1-yl)bicyclo[3.1.0]hexan-6-yl)propyl)benzamide]: the IC50 on IDO1 was 200 to 2000 nM; at mouse IDO1, 2000 to 5000 nM.
Consider `CCC(NC(=O)c1ccc(Cl)cc1)[C@H]1[C@@H]2C[C@@H](n3cc4ccc(F)cc4n3)C[C@@H]21` (stereo partly drawn) [Compound 163, 4-chloro-N-(1-((1R,3s,5S,6r)-3-(6-fluoro-2H-indazol-2-yl)bicyclo[3.1.0]hexan-6-yl)propyl)benzamide], for which the IC50 is less than 200 nM against IDO1 and less than 500 nM on mouse IDO1.
On the same counts, the results for `CCC(NC(=O)c1ccc(Cl)cc1)[C@H]1[C@@H]2C[C@@H](n3ncc4cccnc43)C[C@@H]21` (stereo partly drawn) [Compound 212, N-(1-((1R,3s,5S,6r)-3-(1H-pyrazolo[3,4-b]pyridin-1-yl)bicyclo[3.1.0]hexan-6-yl)propyl)-4-chlorobenzamide] are less than 200 nM and 500 to 2000 nM.
Taken in the same sequence, the figures for `CCc1cn([C@@H]2C[C@@H]3[C@H](C2)[C@H]3C(CC)NC(=O)c2ccc(Cl)cc2)nn1` (stereo partly drawn) [Compound 167, 4-chloro-N-(1-((1R,3s,5S,6r)-3-(4-ethyl-1H-1,2,3-triazol-1-yl)bicyclo[3.1.0]hexan-6-yl)propyl)benzamide] were less than 200 nM and less than 500 nM.
Turning to `CCC(NC(=O)c1ccc(Cl)cc1)[C@H]1[C@@H]2C[C@@H](n3cc(C4CNC4)nn3)C[C@@H]21` (stereo partly drawn) [Compound 237, N-(1-((1R,3s,5S,6r)-3-(4-(azetidin-3-yl)-1H-1,2,3-triazol-1-yl)bicyclo[3.1.0]hexan-6-yl)propyl)-4-chlorobenzamide], the IC50 against IDO1 and at mouse IDO1 was more than 5000 nM throughout.
Regarding `CCC(NC(=O)c1ccc(Cl)cc1)[C@H]1[C@@H]2C[C@@H](C(C(=O)OC)c3ccccc3)C[C@@H]21` (mixture of isomers) [Compound 202, methyl (S)-2-((1R,3S,5S, 6S)-6-((R)-1-(4-chlorobenzamido)propyl)bicyclo[3.1.0]hexan-3-yl)-2-phenylacetate and methyl (R)-2-((R, 3S, 5S, 6S)-6-((S)-1-(4-chlorobenzamido)propyl)bicyclo[3.1.0]hexan-3-yl)-2-phenylacetate], the results for the IC50 on IDO1 and at mouse IDO1 were 200 to 2000 nM and 500 to 2000 nM, respectively.
On the same counts, the results for `O=C(NC(CO)[C@H]1[C@@H]2C[C@@H](n3cc(C4CC4)nn3)C[C@@H]21)c1ccc(Cl)cc1` (stereo partly drawn) [Compound 168, 4-chloro-N-(1-((1R,3s,5S,6r)-3-(4-cyclopropyl-1H-1,2,3-triazol-1-yl)bicyclo[3.1.0]hexan-6-yl)-2-hydroxyethyl)benzamide] are 2000 to 5000 nM and more than 5000 nM.
Turning to `CCC(NC(=O)c1ccc(Cl)cc1)[C@H]1[C@@H]2C[C@@H](Nc3ncc(F)cc3[N+](=O)[O-])C[C@@H]21` (stereo partly drawn) [Compound 236, 4-chloro-N-(1-((1R,3s,5S,6r)-3-((5-fluoro-3-nitropyridin-2-yl)amino)bicyclo[3.1.0]hexan-6-yl)propyl)benzamide], the 50% inhibitory concentration (IC50) against IDO1 was less than 200 nM; against mouse IDO1, 500 to 2000 nM.
On the same counts, the results for `CCC(NC(=O)c1ccc(Cl)cc1)[C@H]1[C@@H]2C[C@@H](NC(=O)c3ccccn3)C[C@@H]21` (stereo partly drawn) [Compound 117, N-((1R,3s,5S,6r)-6-(1-(4-chlorobenzamido)propyl)bicyclo[3.1.0]hexan-3-yl)picolinamide] are less than 200 nM and 2000 to 5000 nM.
On the same counts, the results for `CCC(NC(=O)c1ccc(Cl)cc1)[C@H]1[C@@H]2C[C@@H](n3nc4cc(F)cc(F)c4n3)C[C@@H]21` (stereo partly drawn) [Compound 213, 4-chloro-N-(1-((1R,3s,5S,6r)-3-(4,6-difluoro-2H-benzo[d][1,2,3]triazol-2-yl)bicyclo[3.1.0]hexan-6-yl)propyl)benzamide] are less than 200 nM and 500 to 2000 nM.
Take `CCC(NC(=O)c1ccc(Cl)cc1)[C@H]1[C@@H]2C[C@@H](n3cc(C4CN(C(C)=O)C4)nn3)C[C@@H]21` (stereo partly drawn) [Compound 257, N-(1-((1R,3s,5S,6r)-3-(4-(1-acetylazetidin-3-yl)-1H-1,2,3-triazol-1-yl)bicyclo[3.1.0]hexan-6-yl)propyl)-4-chlorobenzamide]: the IC50 at IDO1 and at mouse IDO1 was more than 5000 nM each time.
As to `CCC(NC(=O)c1ccc(Cl)cc1)[C@H]1[C@@H]2C[C@@H](NC(=O)c3ccc(OC)cn3)C[C@@H]21` (stereo partly drawn) [Compound 164, N-((1R,3s,5S,6r)-6-(1-(4-chlorobenzamido)propyl)bicyclo[3.1.0]hexan-3-yl)-5-methoxypicolinamide], the half-maximal inhibitory concentration (IC50) fell in the range of 200 to 2000 nM against IDO1 and 500 to 2000 nM on mouse IDO1.
Taken in the same sequence, the figures for `CCC(NC(=O)c1ccc(Cl)cc1)[C@H]1[C@@H]2C[C@@H](N3Cc4ccccc4C3=O)C[C@@H]21` (stereo partly drawn) [Compound 175, 4-chloro-N-(1-((1R,3s,5S,6r)-3-(1-oxoisoindolin-2-yl)bicyclo[3.1.0]hexan-6-yl)propyl)benzamide] were less than 200 nM and 500 to 2000 nM.
On the same counts, the results for `CCOCc1cn([C@H]2C[C@@H]3[C@H](C2)[C@H]3C(CC)NC(=O)c2ccc(Cl)cc2)nn1` (stereo partly drawn) [Compound 216, 4-chloro-N-(1-((1R,3r,5S,6r)-3-(4-(ethoxymethyl)-1H-1,2,3-triazol-1-yl)bicyclo[3.1.0]hexan-6-yl)propyl)benzamide] are less than 200 nM and less than 500 nM.
On the same counts, the results for `O=C(Nc1ccc(Cl)cc1)[C@H]1[C@@H]2CN(c3ncnc4ccc(F)cc34)C[C@@H]21` [Compound 252, (1R,5S,6r)-N-(4-chlorophenyl)-3-(6-fluoroquinazolin-4-yl)-3-azabicyclo[3.1.0]hexane-6-carboxamide] are more than 5000 nM and 2000 to 5000 nM.
